# Reference: US20080003438A1, “Heterocyclic siloxanes for use in biocidal coatings and materials” (Auburn University, priority 2002, published 2008)
# Columns and labels:
# [1] = Laundry washing cycles (AATCC Test Method 61, Test 2A), chlorine loading after washing; assay type: physicochemical; settings: for Average Chlorine Loading %: cotton
# Method: Finally, a wash test was performed on swatches of cotton containing the monomer 3-triethoxysilylpropyl-5,5-dimethylhydantoin coating and the polysiloxane coating, each chlorinated and unchlorinated, for comparison purposes. Two treatment baths were prepared, one containing an 8% solution of 3-triethoxysilylpropyl-5,5-dimethylhydantoin in a 50% solution of ethanol in water, the other containing an 8% solution of siloxane polymer prepared as described above in a 66.7% solution of ethanol in water. Identical cotton swatches were soaked in the two baths for 2.5 minutes at ambient temperature, cured in air at 130° C. for 20 minutes, soaked in 1.5% liquid detergent at ambient temperature for 15 minutes, rinsed thoroughly with water, and dried in air at 50° C. for 30 minutes. Then one-half of the swatches of each type were chlorinated by soaking them in 5% CLOROX at ambient temperature for 45 minutes. These chlorinated samples were rinsed thoroughly with water and dried in air at 50° C. for 30 minutes to remove all occluded free chlorine. Iodometric/thiosulfate titrations were performed on representative samples to determine initial chlorine loadings. The average chlorine loading for the silane monomer-coated samples was 0.61%; for the siloxane polymer-coated samples, the average chlorine loading was 0.40%. Then all types of coated swatches were subjected to laundry washing cycles using AATCC Test Method 61 (Test 2A Procedure). Samples were evaluated after 5, 10, and 50 washing cycles for retention of the coatings. Those samples not chlorinated before washing were chlorinated by the procedure described above in order to assess how much chlorine could be loaded after variable numbers of washing cycles. Those chlorinated before washing were divided into two groups with half being assessed for chlorine loading without rechlorination, the other half being rechlorinated and then assessed for chlorine loading. Three observations are clearly evident from the data in Table 3. First, both the silane and the siloxane coatings are partially lost upon successive washings. Second, prechlorination reduces the rate of loss, probably due to increasing the hydrophobicity of the surface, thus reducing the rate of hydrolysis loss of the siloxane coatings. Third, the siloxane coating, which is not chlorinated to as high a level as the silane one upon initial chlorination, is lost at a slower rate than is the silane coating. For all of the coatings, at least partial biocidal efficacy would be regenerated upon rechlorination after 50 washing cycles. Most probably, a low concentration of bleach added to washing cycles should maintain biocidal activity of the cotton material for the lifetime of the material.
# Finally, 100% cotton fabric swatches were tested. In this case 10 mL of the refluxed solution of polymer (the solid was not isolated) were mixed with 100 mL of a 50% ethanol/50% water solution in a beaker. The cotton swatches (7 g) were soaked in the solution for 3 minutes, then partially dried in air at ambient temperature, and then cured at 150° C. for 30 minutes. After soaking in 5% CLOROX for 20 minutes, the swatches were rinsed and dried at ambient temperature. The average chlorine loading of several swatches was determined by iodometric/thiosulfate titration to be 0.438% Cl. Then the other treated swatches were subjected to laundry washing cycles using AATCC Test Method 61 (Test 2A Procedure) followed by analytical determination of chlorine loading as a function of the number of wash cycles. After 5, 10, and 50 wash cycles the chlorine loadings averaged 0.282%, 0.279%, and 0.165%, respectively.
# [2] = Stability test during dry storage of coated cotton samples; assay type: physicochemical
# Method: A stability test during dry storage was also conducted on cotton samples coated with 3-triethoxysilylpropyl-5,5-dimethylhydantoin. One half of the samples were coated in a bath containing 8% of the 3-triethoxysilylpropyl-5,5-dimethylhydantoin in 50% ethanol in water solution. The other half were treated in the same manner except that KSCN was added to the treatment bath as described above. The chlorination conditions and analytical method of measuring chlorine loadings were the same as discussed above. The samples were stored in plastic bags at ambient temperature; the bags were not air-tight. The average chlorine loading for the samples treated in the presence of KSCN declined from 0.776% to 0.680% over a period of 50 days. For the samples not treated in the presence of KSCN, the decline was from 0.620% to 0.540% over the same 50 day period. It can be concluded that the coated cotton samples were fairly stable to loss of chlorine in dry storage.
# [3] = tested on: Candida albicans (ATCC # 102301); test: Anti-yeast activity of halogen charged coated surfaces; assay type: cell-based
# Method: Soft and hard surfaces were treated by exposure to solutions of 3-triethoxysilylpropyl-5,5-dimethylhydantoin prepared as described in Example 1. Challenge inocula for determination of activity directed against yeasts consisted of suspensions of Candida albicans (ATCC # 102301) harvested from PDA plates. Procedures for preparation of halogen charged surfaces, plates, and the exposure of test articles were as described in Example 11. Recovery of viable Candida was accomplished by the plate dilution method on PDA.
# [4] = tested on: spores of Bacillus subtilis; test: Anti Bacillus spore activity of chlorine charged coated surfaces; assay type: cell-based; settings: 96 hours
# Method: Soft and hard surfaces were treated by exposure to solutions of 3-triethoxysilylpropyl-5,5-dimethylhydantoin, prepared as described in Example 1, and charged with chlorine as described in Example 11. Challenge inocula for the detection of activity versus bacterial spores were prepared from suspensions of spores of Bacillus subtilis. Recovery of viable organisms from challenged surfaces was done on TSA plates, and enumeration was accomplished by the plate dilution method.
structure (smiles),measurement,setting,value
"CCO[Si](CCCN1C(=O)NC(C)(C)C1=O)(OCC)OCC [3-triethoxysilylpropyl-5,5-dimethylhydantoin]",bound chlorine retained,"[1]; cotton cloth, after 50 wash cycles",about 34%
same,Average Chlorine Loading %,"[1]; chlorination before washing No, after washing Yes, 5 washing cycles",0.26%
same,Average Chlorine Loading %,"[1]; chlorination before washing No, after washing Yes, 10 washing cycles",0.15%
same,Average Chlorine Loading %,"[1]; chlorination before washing No, after washing Yes, 50 washing cycles",0.03%
same,Average Chlorine Loading %,"[1]; chlorination before washing Yes, after washing No, 5 washing cycles",0.42%
same,Average Chlorine Loading %,"[1]; chlorination before washing Yes, after washing No, 10 washing cycles",0.41%
same,Average Chlorine Loading %,"[1]; chlorination before washing Yes, after washing No, 50 washing cycles",0.10%
same,Average Chlorine Loading %,"[1]; chlorination before washing Yes, after washing Yes, 5 washing cycles",0.394%
same,Average Chlorine Loading %,"[1]; chlorination before washing Yes, after washing Yes, 10 washing cycles",0.388%
same,Average Chlorine Loading %,"[1]; chlorination before washing Yes, after washing Yes, 50 washing cycles",0.133%
same,average chlorine loading,"[2]; cotton not treated in presence of KSCN, after 50 days in plastic bags at ambient temperature",0.540%
same,average chlorine loading,"[2]; cotton not treated in presence of KSCN, start of dry storage",0.620%
same,average chlorine loading,"[2]; cotton treated in presence of KSCN, after 50 days in plastic bags at ambient temperature",0.680%
same,average chlorine loading,"[2]; cotton treated in presence of KSCN, start of dry storage",0.776%
same,reduction in viable yeasts,"[3]; cotton surfaces, two hours of contact",5 logs
same,reduction in viable yeasts,"[3]; hard surfaces, 6 hours of contact",up to 4 logs
same,reduction in viable yeasts,"[3]; polyester, 24 hours",4 logs
same,reduction in viable B. subtilis spore counts,[4]; cellulose sponge,> 5 logs
same,reduction in viable B. subtilis spore counts,[4]; cotton and polyester,> 2 logs
same,reduction in viable B. subtilis spore counts,"[4]; hard surfaces (marble, vinyl, porcelain)",up to 4 logs
